Test results published in US12458021B2, “Microbiocidal derivatives” (SYNGENTA CROP PROTECTION AG, priority 2019, dated 2025).

Key:
[1] = tested on: Glomerella lagenarium (Colletotrichum lagenarium); experiment: Glomerella lagenarium (Colletotrichum lagenarium) / liquid culture (anthracnose); format: cell-based; settings: Colletotrichum orbiculare, PDB potato dextrose broth, 24° C., 3-4 days after application, read-out: control of Glomerella lagenarium (inhibition of growth, photometric)
Outline: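 Conidia from cryogenic storage suspended in potato dextrose broth and added to DMSO compound solution in plates. Incubated at 24° C; growth inhibition read photometrically 3-4 days after application.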

[2] = tested on: Alternaria solani; experiment: Alternaria solani / tomato / leaf disc (early blight); format: in vivo; settings: foliar, tomato leaf disks cv. Baby, inoculated 2 days after application, assessed 5-7 days after application, read-out: control of Alternaria solani (percent disease control compared to untreated)
Description: Example B1: Alternaria solani/Tomato/Leaf Disc (Early Blight) Tomato leaf disks cv. Baby are placed on agar in multiwell plates (24-well format) and sprayed with the formulated test compound diluted in water. The leaf disks are inoculated with a spore suspension of the fungus 2 days after application. The inoculated leaf disks are incubated at 23° C./21° C. […] […]-185.

[3] = tested on: Mycosphaerella arachidis (Cercospora arachidicola); experiment: Mycosphaerella arachidis (Cercospora arachidicola) / liquid culture (early leaf spot); format: cell-based; settings: PDB potato dextrose broth, 24° C., 4-5 days after application, read-out: control of Mycosphaerella arachidis (inhibition of growth, photometric)
Description: Example B8: Mycosphaerella arachidis (Cercospora arachidicola)/Liquid Culture (Early Leaf Spot) Conidia of the fungus from cryogenic storage are directly mixed into nutrient broth (PDB potato dextrose broth). After placing a (DMSO) solution of test compound into a microtiter plate (96-well format), the nutrient broth containing the fungal spores is added. The test plates are incubated at 24° C. and the inhibition of growth is determined photometrically 4-5 days after application. […] […]-180.

[4] = tested on: Mycosphaerella graminicola (Septoria tritici); experiment: Mycosphaerella graminicola (Septoria tritici) / liquid culture (Septoria blotch); format: cell-based; settings: Zymoseptoria tritici, PDB potato dextrose broth, 24° C., 4-5 days after application, read-out: control of Mycosphaerella graminicola (inhibition of growth, photometric)
Outline: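 Conidia from cryogenic storage were mixed into potato dextrose broth and added to test compound in DMSO. Plates were incubated at 24° C, and growth inhibition was read photometrically 4-5 days after application.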

[5] = tested on: Pyrenophora teres; experiment: Pyrenophora teres / barley / leaf disc preventative (net blotch); format: in vivo; settings: foliar, barley leaf segments cv. Hasso, inoculated 2 days after application, assessed 5-7 days after application, read-out: control of Pyrenophora teres (disease control compared to untreated)
Description: Example B13: Pyrenophora teres/Barley/Leaf Disc Preventative (Net Blotch) Barley leaf segments cv. Hasso are placed on agar in a multiwell plate (24-well format) and sprayed with the formulated test compound diluted in water. The leaf segments are inoculated with a spore suspension of the fungus 2 days after application. The inoculated leaf segments are incubated at 20° C. and 65% rh under a light regime of 12 h light/12 h darkness in a climate cabinet and the activity of a compound is assessed as disease control compared to untreated when an appropriate level of disease damage appears in untreated check leaf segments (5-7 days after application). […] […]-185.

[6] = tested on: Puccinia recondita f. sp. tritici; experiment: Puccinia recondita f. sp. tritici / wheat / leaf disc preventative (brown rust); format: in vivo; settings: foliar, wheat leaf segments cv. Kanzler, inoculated 1 day after application, assessed 7-9 days after application, read-out: control of Puccinia recondita f. sp. tritici, preventative (percent disease control compared to untreated)
Outline: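 Wheat leaf segments (cv. Kanzler) on agar were sprayed with formulated compound, then inoculated with spores 1 day later. Segments were incubated at 19 °C, 75% rh with 12 h light/dark. Percent disease control versus untreated was scored 7–9 days after application.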

[7] = tested on: Blumeria graminis f. sp. tritici (Erysiphe graminis f. sp. tritici); experiment: Blumeria graminis f. sp. tritici / wheat / leaf disc preventative (powdery mildew on wheat); format: in vivo; settings: foliar, wheat leaf segments cv. Kanzler, inoculated 1 day after application, assessed 6-8 days after application, read-out: control of Blumeria graminis f. sp. tritici (percent disease control compared to untreated)
Text: Example B4: Blumeria graminis f. sp. tritici (Erysiphe graminis f. sp. tritici)/Wheat/Leaf Disc Preventative (Powdery Mildew on Wheat) Wheat leaf segments cv. Kanzler are placed on agar in a multiwell plate (24-well format) and sprayed with the formulated test compound diluted in water. The leaf disks are inoculated by shaking powdery mildew infected plants above the test plates 1 day after application. […] […]-192.

[8] = tested on: Monographella nivalis (Microdochium nivale); experiment: Monographella nivalis (Microdochium nivale) / liquid culture (foot rot cereals); format: cell-based; settings: PDB potato dextrose broth, 24° C., 4-5 days after application, read-out: control of Monographella nivalis (inhibition of growth, photometric)
Outline: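 Cryostored M. nivalis conidia mixed into potato dextrose broth and added to 96-well plates holding test compound in DMSO. Incubated at 24° C; growth inhibition read photometrically 4-5 days after application.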

[9] = tested on: Magnaporthe grisea (Pyricularia oryzae); experiment: whole plant or invertebrate; format: in vivo; settings: foliar, read-out: control of Magnaporthe grisea (percent disease control compared to untreated)
[10] = tested on: Phaeosphaeria nodorum (Septoria nodorum); experiment: Phaeosphaeria nodorum (Septoria nodorum) / wheat / leaf disc preventative (glume blotch); format: in vivo; settings: Parastagonospora nodorum, foliar, wheat leaf segments cv. Kanzler, inoculated 2 days after application, assessed 5-7 days after application, read-out: control of Phaeosphaeria nodorum (percent disease control compared to untreated)
Description: Example B6: Phaeosphaeria nodorum (Septoria nodorum)/Wheat/Leaf Disc Preventative (Glume Blotch) Wheat leaf segments cv. Kanzler are placed on agar in a multiwell plate (24-well format) and sprayed with the formulated test compound diluted in water. The leaf disks are inoculated with a spore suspension of the fungus 2 days after application. The inoculated test leaf disks are incubated at 20° C. and 75% rh under a light regime of 12 h light/12 h darkness in a climate cabinet and the activity of a compound is assessed as percent disease control compared to untreated when an appropriate level of disease damage appears in untreated check leaf disks (5-7 days after application). […] […]-190.

[11] = tested on: Botryotinia fuckeliana (Botrytis cinerea); experiment: Botryotinia fuckeliana (Botrytis cinerea) / liquid culture (gray mould); format: cell-based; settings: Vogels broth, 24° C., 3-4 days after application, read-out: control of Botryotinia fuckeliana (inhibition of growth, photometric)
Description: Example B2: Botryotinia fuckeliana (Botrytis cinerea)/Liquid Culture (Gray Mould) Conidia of the fungus from cryogenic storage are directly mixed into nutrient broth (Vogels broth). After placing a (DMSO) solution of test compound into a microtiter plate (96-well format), the nutrient broth containing the fungal spores is added. The test plates are incubated at 24° C. and the inhibition of growth is determined photometrically 3-4 days after application. […] […]-190.

COc1ccc(Nc2cc(F)cc(F)c2)nc1C(=O)NCC(C)(C)C [Compound P-22, 6-(3,5-difluoroanilino)-N-(2,2-dimethylpropyl)-3-methoxy-pyridine-2-carboxamide]
≥ 80%: inhibition at 20 ppm [1] | pest or weed control at 200 ppm [2] | inhibition at 20 ppm [3] | inhibition at 20 ppm [4] | pest or weed control at 200 ppm [5] | pest or weed control at 200 ppm [6] | pest or weed control at 200 ppm [7] | inhibition at 20 ppm [8] | pest or weed control at 200 ppm [9] | pest or weed control at 200 ppm [10]

COc1ccc(Nc2cc(F)cc(F)c2)nc1C(=O)NCc1cc(F)cc(F)c1 [Compound P-26, 6-(3,5-difluoroanilino)-N-[(3,5-difluorophenyl)methyl]-3-methoxy-pyridine-2-carboxamide]
≥ 80%: inhibition at 20 ppm [1] | inhibition at 20 ppm [3] | inhibition at 20 ppm [4] | pest or weed control at 200 ppm [5] | pest or weed control at 200 ppm [6] | pest or weed control at 200 ppm [7] | inhibition at 20 ppm [8] | pest or weed control at 200 ppm [9] | pest or weed control at 200 ppm [10]

COc1ccc(NCC(O)CO)nc1C(=O)NCC(C)(C)C (centres unmarked) [Compound P-42, 6-(2,3-dihydroxypropylamino)-N-(2,2-dimethylpropyl)-3-methoxy-pyridine-2-carboxamide]
≥ 80%: inhibition at 20 ppm [1] | inhibition at 20 ppm [11]

COc1ccc(Nc2cc(F)cc(F)c2)nc1C(=O)NC1CCC1Oc1ccc(F)cc1 (centres unmarked) [Compound P-45, 6-(3,5-difluoroanilino)-N-[2-(4-fluorophenoxy)cyclobutyl]-3-methoxy-pyridine-2-carboxamide]
≥ 80%: inhibition at 20 ppm [1] | pest or weed control at 200 ppm [2] | inhibition at 20 ppm [3] | inhibition at 20 ppm [4] | pest or weed control at 200 ppm [5] | pest or weed control at 200 ppm [6] | pest or weed control at 200 ppm [7] | inhibition at 20 ppm [8] | pest or weed control at 200 ppm [9] | pest or weed control at 200 ppm [10]

COc1ccc(Nc2cc(F)cc(F)c2)nc1C(=O)NCc1ccc(Oc2ccccc2)cc1 [Compound P-57, 6-(3,5-difluoroanilino)-3-methoxy-N-[(4-phenoxyphenyl)methyl]pyridine-2-carboxamide]
≥ 80%: inhibition at 20 ppm [1] | inhibition at 20 ppm [3] | inhibition at 20 ppm [4] | pest or weed control at 200 ppm [5] | pest or weed control at 200 ppm [6] | pest or weed control at 200 ppm [7] | inhibition at 20 ppm [8] | pest or weed control at 200 ppm [9] | pest or weed control at 200 ppm [10]

COc1ccc(Nc2cc(F)cc(F)c2)nc1C(=O)NCC1(C(F)(F)F)CC1 [Compound P-62, 6-(3,5-difluoroanilino)-3-methoxy-N-[[1-(trifluoromethyl)cyclopropyl]methyl]pyridine-2-carboxamide]
≥ 80%: inhibition at 20 ppm [1] | pest or weed control at 200 ppm [2] | inhibition at 20 ppm [3] | inhibition at 20 ppm [4] | pest or weed control at 200 ppm [5] | pest or weed control at 200 ppm [6] | pest or weed control at 200 ppm [7] | inhibition at 20 ppm [8] | pest or weed control at 200 ppm [9] | pest or weed control at 200 ppm [10]

CCOc1ccc(Nc2cc(F)cc(F)c2)nc1C(=O)NC(C)(C)C [Compound P-94, N-tert-butyl-6-(3,5-difluoroanilino)-3-ethoxy-pyridine-2-carboxamide]
≥ 80%: inhibition at 20 ppm [1] | pest or weed control at 200 ppm [2] | inhibition at 20 ppm [3] | inhibition at 20 ppm [4] | pest or weed control at 200 ppm [5] | pest or weed control at 200 ppm [7] | inhibition at 20 ppm [8] | pest or weed control at 200 ppm [9] | pest or weed control at 200 ppm [10]

CC1(NC(=O)c2cccc(Nc3cc(F)cc(F)c3)n2)CCCC1 [Compound P-119, 6-(3,5-difluoroanilino)-N-(1-methylcyclopentyl)pyridine-2-carboxamide]
≥ 80%: inhibition at 20 ppm [1] | inhibition at 20 ppm [4] | inhibition at 20 ppm [11] | pest or weed control at 200 ppm [6] | inhibition at 20 ppm [8] | pest or weed control at 200 ppm [9]

CC1(NC(=O)c2cccc(Nc3cc(F)nc(F)c3)n2)CCCC1 [Compound P-120, 6-[(2,6-difluoro-4-pyridyl)amino]-N-(1-methylcyclopentyl)pyridine-2-carboxamide]
≥ 80%: inhibition at 20 ppm [1] | inhibition at 20 ppm [4] | inhibition at 20 ppm [11] | pest or weed control at 200 ppm [6] | inhibition at 20 ppm [8] | pest or weed control at 200 ppm [9]

COc1ccc(Nc2ccc(C)c(Cl)c2)nc1C(=O)NCC(C)(C)C [Compound P-132, 6-(3-chloro-4-methyl-anilino)-N-(2,2-dimethylpropyl)-3-methoxy-pyridine-2-carboxamide]
≥ 80%: inhibition at 20 ppm [1] | inhibition at 20 ppm [4] | inhibition at 20 ppm [11] | inhibition at 20 ppm [8]

COc1ccc(Nc2ccc(C)c(F)c2)nc1C(=O)NCC(C)(C)C [Compound P-142, N-(2,2-dimethylpropyl)-6-(3-fluoro-4-methyl-anilino)-3-methoxy-pyridine-2-carboxamide]
≥ 80%: inhibition at 20 ppm [1] | inhibition at 20 ppm [11]

COc1ccc(Nc2ccc(C)c(Cl)c2)nc1C(=O)NC(C)(C)C [Compound P-151, N-tert-butyl-6-(3-chloro-4-methyl-anilino)-3-methoxy-pyridine-2-carboxamide]
≥ 80%: inhibition at 20 ppm [1] | inhibition at 20 ppm [4] | inhibition at 20 ppm [11] | inhibition at 20 ppm [8] | pest or weed control at 200 ppm [9]

COc1ccc(Nc2cc(F)cc(F)c2)nc1C(=O)NC(C)C(C)(C)C (centres unmarked) [Compound P-170, 6-(3,5-difluoroanilino)-3-methoxy-N-(1,2,2-trimethylpropyl)pyridine-2-carboxamide]
≥ 80%: inhibition at 20 ppm [1] | pest or weed control at 200 ppm [2] | inhibition at 20 ppm [4] | inhibition at 20 ppm [11] | pest or weed control at 200 ppm [7] | inhibition at 20 ppm [8]

Cc1ccc(Nc2cc(F)cc(F)c2)nc1C(=O)NC1CCC1(C)C (centres unmarked) [Compound P-175, 6-(3,5-difluoroanilino)-N-(2,2-dimethylcyclobutyl)-3-methyl-pyridine-2-carboxamide]
≥ 80%: inhibition at 20 ppm [1] | inhibition at 20 ppm [4] | inhibition at 20 ppm [11] | inhibition at 20 ppm [8]
